Data as given in PubChem BioAssay AID1963444 (Molecular Pharmacology Branch, DTP, NCI, 2024).

System: HSSY-II complex spheroid growth, percent test/control
Test: Anticancer human tumor HSSY-II cell line growth inhibition [Asc];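 note: spheroids exposed to drug for 7 days before reading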
Settings: for IC50: curve of first compound; for viability, T/C: stronger effect = lower value; active = viability on the fitted dose curve at most 10% of control; inactive = the rest
Method in brief: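 Spheroid model: tumor line + HUVEC + hMSC. Single agents and combinations; top conc. at/near clinical Cmax (10 microM if undetermined), half-log dilutions. DMSO stocks at 800-fold test concentration.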

[1] = second compound 0.01 µM, first compound 0.0316 µM
[2] = second compound 0.01 µM, first compound 0.1 µM
[3] = second compound 0.0316 µM, first compound 0.0316 µM
[4] = second compound 0.0316 µM, first compound 0.1 µM
[5] = second compound 0.1 µM, first compound 0.0316 µM
[6] = second compound 0.1 µM, first compound 0.1 µM
[7] = second compound 0.316 µM, first compound 0.0316 µM
[8] = second compound 0.316 µM, first compound 0.1 µM
[9] = second compound 1 µM, first compound 0.0316 µM
[10] = second compound 1 µM, first compound 0.1 µM

Cc1nc(N2CCC3(CC2)COC(C)C3N)c(CO)nc1Sc1ccnc(N)c1Cl (configuration not stated) + CNC(C)C(=O)NC1CN(S(=O)(=O)c2cccc(S(=O)(=O)N3CCC4CCC(C(=O)NC(c5ccccc5)c5ccccc5)N4C(=O)C(NC(=O)C(C)NC)C3)c2)CCC2CCC(C(=O)NC(c3ccccc3)c3ccccc3)N2C1=O
inactive: viability, T/C (second compound 0.00316 µM, first compound 0.00949 µM) 104% | viability, T/C (second compound 0.00316 µM, first compound 0.03 µM) 102% | viability, T/C (second compound 0.00316 µM, first compound 0.0949 µM) 90.9% | viability, T/C (second compound 0.00316 µM, first compound 0.3 µM) 92.6% | viability, T/C (second compound 0.00316 µM, first compound 0.949 µM) 90.7% | viability, T/C (second compound 0.00316 µM, first compound 3 µM) 69.1% | viability, T/C (second compound 0.01 µM, first compound 0.00949 µM) 105% | viability, T/C (second compound 0.01 µM, first compound 0.03 µM) 97.2% | viability, T/C (second compound 0.01 µM, first compound 0.0949 µM) 90.8% | viability, T/C (second compound 0.01 µM, first compound 0.3 µM) 93.7% | viability, T/C (second compound 0.01 µM, first compound 0.949 µM) 88.1% | viability, T/C (second compound 0.01 µM, first compound 3 µM) 66.9% | viability, T/C (second compound 0.0316 µM, first compound 0.00949 µM) 101% | viability, T/C (second compound 0.0316 µM, first compound 0.03 µM) 91.2% | viability, T/C (second compound 0.0316 µM, first compound 0.0949 µM) 95.4% | viability, T/C (second compound 0.0316 µM, first compound 0.3 µM) 85.8% | viability, T/C (second compound 0.0316 µM, first compound 0.949 µM) 90.7% | viability, T/C (second compound 0.0316 µM, first compound 3 µM) 74.9% | viability, T/C (second compound 0.1 µM, first compound 0.00949 µM) 96.9% | viability, T/C (second compound 0.1 µM, first compound 0.03 µM) 96.4% | viability, T/C (second compound 0.1 µM, first compound 0.0949 µM) 97.5% | viability, T/C (second compound 0.1 µM, first compound 0.3 µM) 95.6% | viability, T/C (second compound 0.1 µM, first compound 0.949 µM) 84.3% | viability, T/C (second compound 0.1 µM, first compound 3 µM) 70.8% | viability, T/C (second compound 0.316 µM, first compound 0.00949 µM) 93.5% | viability, T/C (second compound 0.316 µM, first compound 0.03 µM) 94.2% | viability, T/C (second compound 0.316 µM, first compound 0.0949 µM) 90.2% | viability, T/C (second compound 0.316 µM, first compound 0.3 µM) 85.4% | viability, T/C (second compound 0.316 µM, first compound 0.949 µM) 78.7% | viability, T/C (second compound 0.316 µM, first compound 3 µM) 72.5% | viability, T/C (second compound 1 µM, first compound 0.00949 µM) 97.5% | viability, T/C (second compound 1 µM, first compound 0.03 µM) 92.8% | viability, T/C (second compound 1 µM, first compound 0.0949 µM) 92.7% | viability, T/C (second compound 1 µM, first compound 0.3 µM) 84.7% | viability, T/C (second compound 1 µM, first compound 0.949 µM) 87.6% | viability, T/C (second compound 1 µM, first compound 3 µM) 76%
> 3000 nM: IC50 (second compound 0.00316 µM) | IC50 (second compound 0.01 µM) | IC50 (second compound 0.0316 µM) | IC50 (second compound 0.1 µM) | IC50 (second compound 0.316 µM) | IC50 (second compound 1 µM)

Cn1ncnc1[C@H]1c2n[nH]c(=O)c3cc(F)cc(c23)N[C@@H]1c1ccc(F)cc1 + CNC(C)C(=O)NC1CN(S(=O)(=O)c2cccc(S(=O)(=O)N3CCC4CCC(C(=O)NC(c5ccccc5)c5ccccc5)N4C(=O)C(NC(=O)C(C)NC)C3)c2)CCC2CCC(C(=O)NC(c3ccccc3)c3ccccc3)N2C1=O
inactive: viability, T/C (second compound 0.01 µM, first compound 0.000316 µM) 86.3% | viability, T/C (second compound 0.01 µM, first compound 0.001 µM) 86% | viability, T/C (second compound 0.01 µM, first compound 0.00316 µM) 87.1% | viability, T/C (second compound 0.01 µM, first compound 0.01 µM) 59.3% | viability, T/C [1] 43.4% | viability, T/C [2] 59.6% | viability, T/C (second compound 0.0316 µM, first compound 0.000316 µM) 91.1% | viability, T/C (second compound 0.0316 µM, first compound 0.001 µM) 93.2% | viability, T/C (second compound 0.0316 µM, first compound 0.00316 µM) 80.8% | viability, T/C (second compound 0.0316 µM, first compound 0.01 µM) 60.7% | viability, T/C [3] 36.8% | viability, T/C [4] 53.4% | viability, T/C (second compound 0.1 µM, first compound 0.000316 µM) 82.9% | viability, T/C (second compound 0.1 µM, first compound 0.001 µM) 67.6% | viability, T/C (second compound 0.1 µM, first compound 0.00316 µM) 76.1% | viability, T/C (second compound 0.1 µM, first compound 0.01 µM) 58.3% | viability, T/C [5] 39.6% | viability, T/C [6] 55.4% | viability, T/C (second compound 0.316 µM, first compound 0.000316 µM) 93.8% | viability, T/C (second compound 0.316 µM, first compound 0.001 µM) 92.5% | viability, T/C (second compound 0.316 µM, first compound 0.00316 µM) 80.1% | viability, T/C (second compound 0.316 µM, first compound 0.01 µM) 53% | viability, T/C [7] 37.7% | viability, T/C [8] 54.4% | viability, T/C (second compound 1 µM, first compound 0.000316 µM) 89.6% | viability, T/C (second compound 1 µM, first compound 0.001 µM) 84.5% | viability, T/C (second compound 1 µM, first compound 0.00316 µM) 82% | viability, T/C (second compound 1 µM, first compound 0.01 µM) 72.2% | viability, T/C [9] 56.4% | viability, T/C [10] 48.9%
82.5 nM: IC50 (second compound 1 µM)
24.3 nM: IC50 (second compound 0.1 µM)
22.5 nM: IC50 (second compound 0.0316 µM)
15.3 nM: IC50 (second compound 0.316 µM)
> 100 nM: IC50 (second compound 0.01 µM)

O=C(c1cc(Cc2n[nH]c(=O)c3ccccc23)ccc1F)N1CCN(C(=O)C2CC2)CC1 + CNC(C)C(=O)NC1CN(S(=O)(=O)c2cccc(S(=O)(=O)N3CCC4CCC(C(=O)NC(c5ccccc5)c5ccccc5)N4C(=O)C(NC(=O)C(C)NC)C3)c2)CCC2CCC(C(=O)NC(c3ccccc3)c3ccccc3)N2C1=O
3030 nM: IC50 (second compound 0.1 µM)
2650 nM: IC50 (second compound 0.01 µM)
2320 nM: IC50 (second compound 1 µM)
active: viability, T/C (second compound 0.0316 µM, first compound 10 µM) 7.19% | viability, T/C (second compound 1 µM, first compound 10 µM) 5.51%
3380 nM: IC50 (second compound 0.0316 µM)
inactive: viability, T/C [1] 89% | viability, T/C [2] 102% | viability, T/C (second compound 0.01 µM, first compound 0.316 µM) 91.5% | viability, T/C (second compound 0.01 µM, first compound 1 µM) 83.5% | viability, T/C (second compound 0.01 µM, first compound 3.16 µM) 43.9% | viability, T/C (second compound 0.01 µM, first compound 10 µM) 11.6% | viability, T/C [3] 86.3% | viability, T/C [4] 88.3% | viability, T/C (second compound 0.0316 µM, first compound 0.316 µM) 87.4% | viability, T/C (second compound 0.0316 µM, first compound 1 µM) 73.3% | viability, T/C (second compound 0.0316 µM, first compound 3.16 µM) 53.3% | viability, T/C [5] 74.5% | viability, T/C [6] 81.9% | viability, T/C (second compound 0.1 µM, first compound 0.316 µM) 64.6% | viability, T/C (second compound 0.1 µM, first compound 1 µM) 73.8% | viability, T/C (second compound 0.1 µM, first compound 3.16 µM) 49.1% | viability, T/C (second compound 0.1 µM, first compound 10 µM) 10.6% | viability, T/C [7] 95.1% | viability, T/C [8] 90.6% | viability, T/C (second compound 0.316 µM, first compound 0.316 µM) 86.9% | viability, T/C (second compound 0.316 µM, first compound 1 µM) 67.3% | viability, T/C (second compound 0.316 µM, first compound 3.16 µM) 54.7% | viability, T/C (second compound 0.316 µM, first compound 10 µM) 9.27% | viability, T/C [9] 95.3% | viability, T/C [10] 96.2% | viability, T/C (second compound 1 µM, first compound 0.316 µM) 83% | viability, T/C (second compound 1 µM, first compound 1 µM) 72% | viability, T/C (second compound 1 µM, first compound 3.16 µM) 42%
3220 nM: IC50 (second compound 0.316 µM)
